Measurements: US20220298213A1, “IN VIVO ENGINEERED CEREBLON PROTEIN” (Vividion Therapeutics, Inc., priority 2018, published 2022)

How the values were obtained:
Type in all cases: binding
CRBN-287 = CRBN-287 (Homo sapiens, UniProt Q96SW2); test: Inhibition of probe labeling at screening concentration (Table 1); set-up: endogenous in cells; host or cells: cell lysate; conditions: native folded protein, read-out: Percentage inhibition of probe labeling, CRBN_287
Protocol: (§1) Cells were resuspended in cold PBS on ice and sonicated with a probe sonicator to achieve lysis. 200 μL of lysate containing 5 mg/ml proteome was treated with 2 μL of 100× compound stock in a 2-mL deep-well plate. The treated lysate was subsequently incubate at 25° C. for 1 hr with shaking at 600 rpm. The treated lysate was further incubated with 2 μL of 10 mM desthiobiotin iodoacetamide probe at 25° C. for 1 hr with shaking at 600 rpm. Next, the lysate was further treat with 20 μL of solution of PBS containing 11 mM MgSO4 and 2.5% Turbonuclease stock and incubated at 25° C. for 20 minutes with shaking at 600 rpm. 1.7 mL ice-cold acetone was added to each well and incubated at −20° C. for 2 hr, followed by max speed (4200 rpm) spin for 45 min. Acetone was then decanted and the plates were blotted to remove acetone. The plates were then dried in open air for 20 minutes. After drying, the plates were then covered with foil seal and stored at −80° C. overnight.

CRBN-318 = CRBN-318 (Homo sapiens, UniProt Q96SW2); test: as above; set-up: endogenous in cells; host or cells: cell lysate; conditions: native folded protein, read-out: Percentage inhibition of probe labeling, CRBN_318
Sequence of CRBN-318 (Q96SW2 whole entry): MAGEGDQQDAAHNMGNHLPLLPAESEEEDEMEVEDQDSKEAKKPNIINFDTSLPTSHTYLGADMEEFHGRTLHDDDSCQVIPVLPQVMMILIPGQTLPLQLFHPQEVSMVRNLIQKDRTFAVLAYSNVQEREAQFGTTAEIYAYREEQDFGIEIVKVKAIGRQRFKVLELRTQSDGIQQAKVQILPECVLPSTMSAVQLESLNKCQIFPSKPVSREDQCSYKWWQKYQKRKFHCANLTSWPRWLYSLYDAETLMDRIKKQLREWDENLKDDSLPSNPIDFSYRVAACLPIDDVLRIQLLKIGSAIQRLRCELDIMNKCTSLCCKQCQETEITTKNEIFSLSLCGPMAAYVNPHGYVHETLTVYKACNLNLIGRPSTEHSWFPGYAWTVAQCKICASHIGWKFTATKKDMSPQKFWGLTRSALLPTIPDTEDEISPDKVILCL
Protocol: as §1

PRTN_E = test: as above; conditions: 500 μM
Protocol: as §1

PRTN_A = test: as above; conditions: 500 μM
Protocol: as §1

PRTN_G = test: as above; conditions: 500 μM
Protocol: as §1

PRTN_I = test: as above; conditions: 500 μM
Protocol: as §1

PRTN_H = test: as above; conditions: 500 μM
Protocol: as §1

PRTN_C = test: as above; conditions: 500 μM
Protocol: as §1

PRTN_F = test: as above; conditions: 500 μM
Protocol: as §1

PRTN_D = test: as above; conditions: 500 μM
Protocol: as §1

PRTN_B = test: as above; conditions: 500 μM
Protocol: as §1

PRTN_J = test: as above; conditions: 500 μM
Protocol: as §1

PRTN_K = test: as above; conditions: 500 μM
Protocol: as §1

CRBN Cys287 = biological target: T1, CRBN Cys287 (Homo sapiens, UniProt Q96SW2); test: Inhibition of iodoacetamide probe labeling of CRBN cysteines, cell lysate (Table 3A)
T1 construct: endogenous in cells
T1 sequence (Q96SW2 whole entry): as above
Protocol: (§2) “X@Y” means that x % inhibition of iodoacetamide probe labeling was observed by treatment of cell lysate with the give compound in each row of the table for 1 h at a concentration of y micromolar. There was consistently high inhibition at C318 in addition to C287, which can be attributed to an allosteric inhibition.

CRBN Cys318 = biological target: T2, CRBN Cys318 (Homo sapiens, UniProt Q96SW2); test: as above
T2 construct: endogenous in cells
T2 sequence (Q96SW2 whole entry): as above
Protocol: as §2

[1] = 50 micromolar, cell lysate, 1 h

Sequence of CRBN-287 (Q96SW2 whole entry): as above

C=CC(=O)N1CCC(Oc2cc(C)cc(-c3ccccc3)c2)CC1
inhibition at 500 µM (CRBN-287): 72% | inhibition at 500 µM (CRBN-318): 76% | Percentage inhibition of probe labeling, PRTN_E (PRTN_E): 2% | Percentage inhibition of probe labeling, PRTN_A (PRTN_A): 5% | Percentage inhibition of probe labeling, PRTN_G (PRTN_G): −8% | Percentage inhibition of probe labeling, PRTN_I (PRTN_I): 0% | Percentage inhibition of probe labeling, PRTN_H (PRTN_H): −5% | Percentage inhibition of probe labeling, PRTN_C (PRTN_C): 15% | Percentage inhibition of probe labeling, PRTN_F (PRTN_F): −12% | Percentage inhibition of probe labeling, PRTN_D (PRTN_D): 2% | Percentage inhibition of probe labeling, PRTN_B (PRTN_B): −1% | Percentage inhibition of probe labeling, PRTN_J (PRTN_J): −2% | Percentage inhibition of probe labeling, PRTN_K (PRTN_K): 17%

COc1ccccc1-c1cc(C#N)cc(OC2CCN(C(=O)/C=C/CN(C)C)CC2)c1 [Al]
inhibition at 5 µM (CRBN Cys287; 5 micromolar, cell lysate, 1 h): 40% | inhibition at 50 µM (CRBN Cys287; [1]): 90% | inhibition at 500 µM (CRBN Cys287; read-out: % inhibition of iodoacetamide probe labeling, Cys287): 97% | inhibition at 5 µM (CRBN Cys318; 5 micromolar, cell lysate, 1 h): 43% | inhibition at 50 µM (CRBN Cys318; [1]): 86% | inhibition at 500 µM (CRBN Cys318; read-out: % inhibition of iodoacetamide probe labeling, Cys318, 500 micromolar, cell lysate, 1 h): 95%
